Publication PMC3375360 (Journal of Medicinal Chemistry, 2012)

Key:
Type in all cases: cell-based
[1] = system: T.b. rhodesiense, strain STIB 900 trypomastigotes; experiment: In vitro growth inhibition of bloodstream form T. b. rhodesiense trypomastigotes; details: for activity designation against T. b. rhodesiense: TDR criteria
[2] = system: T. cruzi, strain Tulahuen C4 amastigotes; experiment: In vitro growth inhibition of T. cruzi amastigotes in infected L6 myoblasts
[3] = system: L. donovani axenic, strain MHOM-ET-67/L82 amastigotes; experiment: In vitro growth inhibition of axenically cultured L. donovani amastigotes; details: for activity designation against L. donovani: TDR criteria
[4] = system: bloodstream form T. b. brucei parasites, engineered to overexpress type I nitroreductase; experiment: microbe, parasite or virus in culture; details: Trypanosoma brucei, read-out: TbNTR −tet (IC50)
[5] = system: L6 cells (rat skeletal myoblasts); experiment: Cytotoxicity in L6 cells; details: read-out: L6 IC50 (cytotoxicity)

Compound	activity designation against T. b. rhodesiense [1]	further results
O=C(NCCCn1ccnc1[N+](=O)[O-])c1ccc(C(F)(F)F)cc1 [Compound 1]	inactive	–
O=C(NCCCn1ccnc1[N+](=O)[O-])c1ccc(OC(F)(F)F)cc1 [Compound 2, N-[3-(2-Nitro-1H-imidazol-1-yl)propyl]-4-(trifluoromethoxy)benzamide]	inactive	–
O=C(NCCCCn1cnc([N+](=O)[O-])n1)c1ccc(OC(F)(F)F)cc1 [Compound 6, N-[4-(3-Nitro-1H-1,2,4-triazol-1-yl)butyl]-4-(trifluoromethoxy)benzamide]	–	SI (T. cruzi) ([2]; ratio IC50 in L6 cells/IC50 in T. cruzi): >2381
O=C(NCCCn1cnc([N+](=O)[O-])n1)c1cc(C(F)(F)F)cc(C(F)(F)F)c1 [Compound 8, N-[3-(3-Nitro-1H-1,2,4-triazol-1-yl)propyl]-3,5-bis(trifluoromethyl)benzamide]	inactivity	–
O=C(NCCCn1cnc([N+](=O)[O-])n1)c1ccc(C(F)(F)F)nc1 [Compound 9, N-[3-(3-Nitro-1H-1,2,4-triazol-1-yl)propyl]-6-(trifluoromethyl)pyridine-3-carboxamide]	moderate activity	–
O=C(NCCCn1cnc([N+](=O)[O-])n1)c1cnc2ccccc2n1 [Compound 12, N-[3-(3-Nitro-1H-1,2,4-triazol-1-yl)propyl]quinoxaline-2-carboxamide]	complete inactivity	–
O=C(NCCCn1cnc([N+](=O)[O-])n1)c1ccc(-c2ccccc2)cc1 [Compound 13, N-[3-(3-Nitro-1H-1,2,4-triazol-1-yl)propyl]-4-phenylbenzamide]	moderately active (IC50 = 0.5–6.0 μM)	–
Cc1ccc2nc(NC(=O)Cn3cnc([N+](=O)[O-])n3)sc2c1 [Compound 17, N-(6-methyl-1,3-benzothiazol-2-yl)-2-(3-nitro-1H-1,2,4-triazol-1-yl)acetamide]	inactive	activity designation against L. donovani [3]: moderately active (IC50 = 1.0–6.0 μM)
O=C(Cn1cnc([N+](=O)[O-])n1)Nc1nc2ccc(Cl)cc2s1 [Compound 18, N-(6-chloro-1,3-benzothiazol-2-yl)-2-(3-nitro-1H-1,2,4-triazol-1-yl)acetamide]	inactive	activity designation against L. donovani [3]: moderately active (IC50 = 1.0–6.0 μM)
O=C(Cn1cnc([N+](=O)[O-])n1)Nc1nc2cc(Cl)ccc2o1 [Compound 19, N-(5-chloro-1,3-benzoxazol-2-yl)-2-(3-nitro-1H-1,2,4-triazol-1-yl)acetamide]	inactive	–
O=[N+]([O-])c1nccn1CCCNS(=O)(=O)c1ccc(C(F)(F)F)cc1 [Compound 21, N-[3-(2-Nitro-1H-imidazol-1-yl)propyl]-4-(trifluoromethyl)benzene-1-sulfonamide]	inactive	–
O=[N+]([O-])c1ncn(CCCNS(=O)(=O)c2cc(C(F)(F)F)ccc2C(F)(F)F)n1 [Compound 25, N-[3-(3-Nitro-1H-1,2,4-triazol-1-yl)propyl]-2,5-bis(trifluoromethyl)benzene-1-sulfonamide]	inactivity	–
O=[N+]([O-])c1ncn(CCNS(=O)(=O)c2cc(C(F)(F)F)cc(C(F)(F)F)c2)n1 [Compound 26, N-[2-(3-nitro-1H-1,2,4-triazol-1-yl)ethyl]-3,5-bis(trifluoromethyl)benzene-1-sulfonamide]	inactivity	–
O=[N+]([O-])c1ncn(CCCNS(=O)(=O)c2cc(C(F)(F)F)cc(C(F)(F)F)c2)n1 [Compound 27, N-[3-(3-nitro-1H-1,2,4-triazol-1-yl)propyl]-3,5-bis(trifluoromethyl)benzene-1-sulfonamide]	inactivity	–
Cc1ccc(S(=O)(=O)NCCCn2cnc([N+](=O)[O-])n2)cc1 [Compound 28, 4-Methyl-N-[3-(3-nitro-1H-1,2,4-triazol-1-yl)propyl]benzene-1-sulfonamide]	–	SI (L.don. ax.) ([3]; ratio IC50 in L6 cells/IC50 in L. donovani): >8.1
O=[N+]([O-])c1ncn(CCNS(=O)(=O)Cc2ccccc2)n1 [Compound 30, N-[2-(3-Nitro-1H-1,2,4-triazol-1-yl)ethyl]-1-phenylmethanesulfonamide]	–	activity designation against T. cruzi ([2]; TDR criteria): moderately active (IC50 = 4.0–60 μM)
Nc1nc(N)nc(Nc2ccc([As]3SCC(CO)S3)cc2)n1 (stereo not drawn) [Melars., Melarsoprol, reference compound]	–	IC50 ([1]; Trypanosoma brucei, RHODESIENSE|STIB900, read-out: T.b.rhod. IC50): 12 nM
CC1CS(=O)(=O)CCN1/N=C/c1ccc([N+](=O)[O-])o1 (stereo not drawn) [Nfx, 4-(5-nitrofurfurylidenamino)-3-methylthio-morpholine-1,1-dioxide]	–	IC50 [4]: 1710 ± 60 nM
Podophylotoxin [Podoph.]	–	IC50 [5]: 22 nM
